Assay [1] has as its system urinary bladder explants. The conditions noted are these: 20 ng/ml, third day of cultivation.
Method: The experiments were carried out in 45 urinary bladder fragments of 10-11-days old chicken embryos. The nutrient medium for the explant cultivation included 35 % of Eagle's solution, 25 % of foetal calf serum, 35 % of Hanks' solution, 5 % of chicken embryonic extract and was added glucose (0.6 %), insulin (0.5 unit/ml), penicillin (100 unit/ml) and glutamine (2 mM). The urinary bladder fragments were placed in this medium and cultivated in Petri's dishes in a thermostat at 36.7°C for 48 hours. […] Square index (SI) was taken for a biological activity criterion and calculated as a correlation of the total explant square (including the growth zone) to the initial square of a urinary bladder fragment. The SI values were expressed per cent, the control SI value - taken for 100 %.
Assay [2] has as its system chronic bacterial prostatitis. Here is the method:
The investigation was performed on 41 white mongrel male rats weighing on average 230 g. Bacterial prostatitis was induced in the rats by transurethral introduction of enterotoxigenic E.coli suspension K-2935 (01: K1: H-). A glycerine-lubricated catheter was inserted into the animals' urethra under a light ether narcosis after treating the external urethra opening with 70 % alcohol. 0.2 ml of bacterial suspension (10^9 colony-forming units per ml) was instilled via catheter with a syringe. Control animals were injected with 0.2 ml of 0.9 % natural saline solution through the catheter. […] The injections were performed daily for 10 days. The control groups included intact animals, animals with untreated chronic prostatitis and those treated with injections of 0.9 % natural saline solution applied by the same plan.
All the rats were euthanasised by decapitation on the 70th day of the experiment. The animals were subjected to complete autopsy. Their testes and epididymes, prostate, seminal vesicles, bulbourethral glands, urinary bladder, kidneys with ureters and other intrinsic organs were examined. For histology the ventral segment of the prostate was fixed in 10 % neutral formalin and - after a standard processing with a series of solvents - embedded in paraffin. 5-7-µm thin tissue sections were stained with haematoxylin-eosin.
The degree of prostatitis manifestation throughout the groups was assessed according to the below 5-point scale: • 1 point - traces of prostatitis (small foci of fibrosis, interstitial lymphocytic and histiocytic infiltration); • 2 points - foci of chronic prostatitis with inflammatory infiltration (basically, interstitial one) occupying less than ¼ of the gland section; • 3 points - prostatitis foci with large inflammatory infiltrates surrounding the ducts, acini and blood vessels, with leukocytic conglomerations in the glandular lumens, embracing ¼ - ½ of the gland section; • 4 points - expressed prostatitis covering ½ - ¾ of the gland section; • 5 points - strongly expressed prostatitis affecting over ¾ of the gland section.
The prostate sites were also used for electron microscopic examination and tests on the content of zinc, which makes a part of compositions with anti-microbial activity.

Assay [3] concerns processes of free radical oxidation. The conditions noted are these: 0.1 µg per injection s.c. for 10 days. Here is the method:
The animals were subcutaneously administered with 0.1 µg of the tetrapeptide per injection for 10 days. The controls were similarly injected with 0.9 % natural saline solution. The rats were euthanasised on the next day after the last introduction of the tetrapeptide.
Afterwards, samples of the brain and liver tissues and blood serum were prepared and peroxide lipid oxidation (PLO) intensity in them was studied by the content of diene conjugates and Schiff's bases. The activity of glutathione peroxidase and superoxide dismutase was defined as well by the method of suppressing nitroblue tetrasolium oxidation with biological material.

Where two headings read alike, the source gives them in different places. Marks after values point to notes of the source that are not given here.

For the substance “lysyl-glutamyl-aspartyl-proline [Lys-Glu-Asp-Pro tetrapeptide]”, the “increase in the explant SI as compared to the control value” in assay [1] is 23%. In addition, the “positive dynamics of inflammatory processes in the prostate” value in assay [2] (0.1 µg per injection s.c. daily for 10 days) was 7 cases out of 11. The “Degree of prostatitis in points Per rat in the group” value in assay [2] (0.1 µg per injection s.c. daily for 10 days, from day 45 after infection, 5-point scale) worked out at 1.81 ± 0.09 points. In addition, in assay [2] (0.1 µg per injection s.c. daily for 10 days, 5-point scale), the “Degree of prostatitis in points Per prostatitis-affected rat” value is recorded as 2.86* points. Further, the “mean concentration of zinc in the prostate tissue” value in assay [2] (after application of the tetrapeptide (Figure 2)) is “decreased”. The “Number of rats in the group Prostatitis -affected” value in assay [2] (of 11 rats in total, 0.1 µg per injection s.c. daily for 10 days) was found to be 7. Further, in assay [3] (Blood serum), the Diene conjugates turned out to be 5.28 ± 0.33 nmol/mL, the Glutathione peroxidase is given as 2.85 ± 0.06 mmol of GlSH/min/mg of protein, the “Schiff's bases” value is on record as 17.40 ± 1.54 conv. unit/ml and the Superoxide dismutase was 0.826 ± 0.060 conv. unit/mg of protein. Besides, in assay [3] (Brain), the Diene conjugates was 46.14 ± 2.91 mnol/ml, the Glutathione peroxidase is 50.7±0.2 mmole of GlSH/min/mg of protein, the “Schiff's bases” value was 237.3 ± 17.8 conv. unit/ml and the Superoxide dismutase was 26.7 ± 3.0 conv. unit/mg of protein. Besides, in assay [3] (Liver), the Diene conjugates stood at 44.76 ± 2.48 nmol/mL, the Glutathione peroxidase is on record as 798.0±29.1 mmol of GlSH/min/mg of protein, the “Schiff's bases” value is 556.5 ±37.6 conv. unit/ml and the Superoxide dismutase is given as 54.1 ± 7.9 conv. unit/mg of protein.

The values are drawn from patent EP1353939B1, “TETRAPEPTIDE REGULATING PROSTATE FUNCTIONS AND ITS COMPOSITIONS AND USES” (Sankt-Peterburgskaya Obschestvennaya Organizatsia …, priority 2001, dated 2004).
